Laboratory results reported in patent US12454530B2, “Amido cyclohexane acid derivatives as LPA receptor inhibitors” (CHIESI FARMACEUTICI S.P.A., priority 2020, dated 2025).
Values belong to the compound of their own block, whether it stands above or below them.

Experiments:
[1] = biological target: BSEP (Homo sapiens (Human), UniProt O95342); test: BSEP inhibition: biliary clearance of Taurocolic Acid in sandwich-cultured human hepatocytes; format: in vitro ADME; conditions: sandwich-cultured cryopreserved human hepatocytes, probe Taurocolic Acid (TCA); 50 μM test compound, 10 μM TCA, human hepatocytes sandwich configuration
BSEP, sequence (O95342 whole entry): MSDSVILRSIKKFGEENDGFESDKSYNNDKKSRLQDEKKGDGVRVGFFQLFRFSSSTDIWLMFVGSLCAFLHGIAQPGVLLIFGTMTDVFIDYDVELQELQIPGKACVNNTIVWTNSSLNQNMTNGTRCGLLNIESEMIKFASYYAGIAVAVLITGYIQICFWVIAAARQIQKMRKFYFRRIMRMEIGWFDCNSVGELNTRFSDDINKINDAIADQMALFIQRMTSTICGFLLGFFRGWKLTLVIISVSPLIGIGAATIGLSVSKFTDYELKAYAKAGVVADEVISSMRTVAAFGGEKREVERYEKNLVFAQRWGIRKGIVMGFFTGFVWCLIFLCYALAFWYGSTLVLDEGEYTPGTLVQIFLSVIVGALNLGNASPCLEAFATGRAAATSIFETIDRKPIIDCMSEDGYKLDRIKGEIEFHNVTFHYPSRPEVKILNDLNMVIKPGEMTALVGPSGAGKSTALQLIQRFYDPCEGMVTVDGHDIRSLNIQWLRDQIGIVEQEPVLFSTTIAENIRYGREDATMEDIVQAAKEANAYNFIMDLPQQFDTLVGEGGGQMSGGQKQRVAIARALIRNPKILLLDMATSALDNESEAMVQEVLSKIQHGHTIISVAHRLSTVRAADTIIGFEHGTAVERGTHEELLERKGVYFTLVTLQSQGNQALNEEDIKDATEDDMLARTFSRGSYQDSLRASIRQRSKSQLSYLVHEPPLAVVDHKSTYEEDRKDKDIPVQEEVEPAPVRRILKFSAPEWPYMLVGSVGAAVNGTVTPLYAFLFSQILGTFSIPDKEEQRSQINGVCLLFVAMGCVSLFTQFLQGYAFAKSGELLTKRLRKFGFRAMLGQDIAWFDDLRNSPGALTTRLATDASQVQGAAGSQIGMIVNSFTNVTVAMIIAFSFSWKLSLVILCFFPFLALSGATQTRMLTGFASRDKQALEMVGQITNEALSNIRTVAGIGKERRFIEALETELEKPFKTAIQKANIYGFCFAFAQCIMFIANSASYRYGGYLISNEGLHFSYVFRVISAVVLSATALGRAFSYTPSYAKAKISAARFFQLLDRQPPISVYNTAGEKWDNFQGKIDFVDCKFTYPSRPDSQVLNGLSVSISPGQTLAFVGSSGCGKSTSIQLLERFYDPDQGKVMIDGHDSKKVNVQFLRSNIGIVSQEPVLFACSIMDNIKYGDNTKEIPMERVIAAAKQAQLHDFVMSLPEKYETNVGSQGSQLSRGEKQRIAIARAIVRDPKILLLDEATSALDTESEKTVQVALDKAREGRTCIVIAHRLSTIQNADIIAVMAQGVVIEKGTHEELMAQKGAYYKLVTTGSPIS
Description: BSEP inhibition was evaluated using human hepatocytes cultured between two layer of collagen (sandwich configuration). In this culture condition, hepatocytes express relevant transporters including BSEP and retain the bile canalicular structure. An inhibition of the biliary clearance of Taurocolic Acid (TCA), a known BSEP substrate, was used to assess BSEP interaction.
BSEP inhibition was evaluated using cryopreserved human hepatocytes (Plateable Cryopreserved Human Hepatocytes, BIOIVT) cultured for 5 day between two layer of collagen (sandwich configuration). In this culture condition, hepatocytes express relevant transporters including BSEP and retain the bile canalicular structure.
On day 5 of culture, hepatic cells are ready for the assay and the biliary clearance of Taurocolic Acid (TCA), a known BSEP substrate, can be estimated in presence and in absence of compound of interest.
The sample solution was prepared dissolving test compound and TCA in DMSO and then diluted in the Assay Buffer: Hank's Balance Salt Solution (HBSS+) warmed at 37° C. before use, to give the 10 μM TCA working solution with and without 50 μM of test compound. Hepatocytes were incubated for 10 minutes with these working solutions allowing TCA to be excreted into bile. At the end of incubation, the working solution was aspirated, and the content of the bile was collected through the addition of HBSS Modified without Ca2+/Mg2+(HBSS−). The presence of Ca2+ in the buffer is required to maintain the integrity of the tight junctions, the diffusional barrier between the canalicular lumen and extracellular space. Instead, incubation of cells in Ca2+-free buffer disrupts the tight junctions and opens the bile canalicular structures, allowing the bile content to be released and collect for HPLC-MS/MS analysis.
The in vitro biliary clearance of TCA incubated with and without test compounds is calculated according to the following formula:
where • Acc. Bile=(TCA amount in HBSS (−) buffer samples (pmol/mg protein)*Volume of each samples (mL))/Protein content per well (mg) • AUC=Incubation time (min)*T0 Concentration. T0 concentration is the initial TCA concentration in the medium.
The inhibition of BSEP was calculated as percentage of inhibition of TCA biliary clearance in presence of compound of interest, according to the following formula: BSEP inhibition %=100−(TCA ClBil with test compound*100)
TCA ClBil without test compound.

[2] = Permeability on Caco-2 cells monolayers; format: in vitro ADME; conditions: human, with Elacridar 10 µM (PgP inhibitor), Papp A>B with PgP inhibitor Elacridar, 10 μM compound, read-out: Passive Permeability
Description: Even more advantageously, the compounds of formula (I) of the present invention are also endowed with a good permeability profile that, in its turn, can ensure a suitable bioavailability for an oral administration. The permeability was assessed in human Caco 2 cell line, an in vitro model that mimic human gastrointestinal barrier and so useful to predic oral absorption.
The permeability of the compounds of the present invention was evaluated performing the assay on Caco-2 cells monolayers (human colon adenocarcinoma immortalized cell) by measuring the transport of compound (absorption and secretion) in both directions: apical to basolateral direction (A>B) and basolateral to apical (B>A) with and without PgP inhibitor (Elacridar).
The cells, purched from ReadyCell in 96 well format (Cod. KRECE-CCR50), were cultured by the supplier for 21 day on transwell supports in DMEM 1 g/L glucose culture medium supplemented with Fetal Bovin Sierum (10%), Glutamine 200 mM (1%) and Penicillin 10000 U/ml-10 mg/ml Streptomycin (1%).
On day 21 of colture, cell monolayers integrity was verified by measuring the trans-epithelial electric resistance (TEER) using the EVOM equipment (Endohm, WPI, Germany) and studying the apparent permeability (Papp) of reference compounds (Sulpiride and Metoprolol). Furthermore, as a control, the Talinolol 10 uM (Pgp efflux substrate) with and without Elacridar in both directions was used.
The sample solution was prepared dissolving test compound in DMSO at the concentration of 10 mM and then diluted in the Assay Buffer (Hank's Balance Salt Solution) warmed at 37° C. before use, to give the 10 μM Compound working solution with and without 10 μM Elacridar. These working solutions were added to donor compartment (apical for A>B direction and basolateral for B>A direction) and Assay Buffer (Hank's Balance Salt Solution) to the receiver compartment (basolateral for A>B direction and apical for B>A direction). The plate was incubated at 37° C. for 120 min, all incubation were conducted in triplicates. At the end of incubation, samples from donor and receiver compartments were collected for HPLC-MS/MS analyses.
The permeability coefficients (Papp) in both directions: apical to basolateral (A>B) and basolateral to apical (B>A) with and without PgP inhibitor (Elacridar) was calculated in nm/sec, using the following equation:
[formula] • where: • Cr=measured concentration in the receiver well at the time t (expressed as IS ratio) • Vr=volume of the receiver well (ml) • t=time (sec) • A=membrane surface area (cm^2) • C0=initial donor concentration • Passive Papp is considered Papp A>B with PgP inhibitor Elacridar.

[3] = biological target: human recombinant LPA1 expressed in CHO cells (Homo sapiens (Human), UniProt Q92633); test: LPA1 antagonist FLIPR calcium assay in CHO-hLPA1 cells; format: cell-based; conditions: range of activity; CHO-hLPA1, LPA EC80, Ca2+ mobilization; read-out: LPA1 IC50
human recombinant LPA1 expressed in CHO cells, sequence (Q92633 whole entry): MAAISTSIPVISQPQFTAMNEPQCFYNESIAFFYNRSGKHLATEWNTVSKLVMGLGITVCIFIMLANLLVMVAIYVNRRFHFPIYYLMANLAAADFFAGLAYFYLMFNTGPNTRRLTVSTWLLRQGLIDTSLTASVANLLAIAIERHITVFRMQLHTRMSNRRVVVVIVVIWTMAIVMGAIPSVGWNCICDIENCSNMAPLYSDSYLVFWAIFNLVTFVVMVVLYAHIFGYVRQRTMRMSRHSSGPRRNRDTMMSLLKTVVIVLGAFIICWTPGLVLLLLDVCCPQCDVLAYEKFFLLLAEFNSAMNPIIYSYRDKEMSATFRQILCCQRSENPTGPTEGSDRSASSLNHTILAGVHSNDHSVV
Description: The effectiveness of compounds of the present invention as LPA1 antagonists can be determined at the human recombinant LPA1 expressed in CHO cells, using a FLIPR assay in 384 well format.
CHO-hLPA1 cell lines are cultured in a humidified incubator at 5% CO2 in DMEM/F-12 (1:1) MIXTURE with 2 mM Glutamax, supplemented with 10% of Foetal Bovine Serum, 1 mM Sodium Pyruvate, 11 mM Hepes and 1× Penicillin/Streptomycin. […] Serial dilutions (1:3 or 1:4, 11 points CRC) of compounds are performed in 100% DMSO at 200× the final concentration. […] The final concentration of DMSO in the assay will be 0.5% in each well. Medium is removed by aspiration and cells are then incubated with 30 μl of a loading solution containing 5 μM of the cytoplasmic Ca2+ indicator Cal-520 AM in Assay Buffer containing 2.5 mM probenecid for 30 min at 37° C. incubator (cell loading). The loaded cell plates are transferred into the FLIPR instrument and calcium responses are monitored during the on-line addition protocols. For testing of compounds, after the cell loading, 10 μl/well of 4× antagonists' solution was added onto the cells. After 30 min pre-incubation (at 37° C.), 10 μl/well of 5× concentrated LPA EC80 was added and Ca2+ mobilization responses was followed during the on-line addition protocol. Intracellular peak fluorescence values subtracted by baseline fluorescence are exported and analysed to determine IC50 values, respectively. The calcium response is expressed as percentage of the maximal inhibition of the EC80 agonist response.
The raw data (peak height expressed as relative fluorescence units) are normalized and transformed into “percent of inhibition”. Curve fitting and pIC50 (−LogIC50) estimations are carried out using a four-parameter logistic model using XLfit Software.

Papp at 120 min, 10 µM [2]: ≥ 1.5 ×10⁻⁶ cm/s
Compound: Cc1nc(-c2snc(C)c2NC(=O)O[C@H](C)c2ccccc2Cl)ccc1NC(=O)[C@H]1CCCC[C@@H]1C(=O)O [Example 42, (1S,2S)-2-((6-(4-((((R)-1-(2-chlorophenyl)ethoxy)carbonyl)amino)-3-methylisothiazol-5-yl)-2-methylpyridin-3-yl)carbamoyl)cyclohexane-1-carboxylic acid]

IC50 [3]: < 50 nM
Compound: C[C@@H](OC(=O)Nc1c(-c2ccc(NC(=O)[C@H]3CCCC[C@@H]3C(=O)O)c(F)n2)nnn1C)c1ccccc1Cl [Example 53, (1S,2S)-2-((6-(5-((((R)-1-(2-chlorophenyl)ethoxy)carbonyl)amino)-1-methyl-1H-1,2,3-triazol-4-yl)-2-fluoropyridin-3-yl)carbamoyl)cyclohexane-1-carboxylic acid]
inhibition at 10 min, 50 μM [1]: ≤ 50%

IC50 [3]: 50 to 250 nM
Compound: Cc1nc(-c2nnn(C)c2NC(=O)O[C@H](C)c2ccccc2C(F)(F)F)ccc1NC(=O)[C@H]1CCCC[C@@H]1C(=O)O [Example 45, (1S,2S)-2-((2-methyl-6-(1-methyl-5-((((R)-1-(2-(trifluoromethyl)phenyl)ethoxy)carbonyl)amino)-1H-1,2,3-triazol-4-yl)pyridin-3-yl)carbamoyl)cyclohexane-1-carboxylic acid]
inhibition at 10 min, 50 μM [1]: ≤ 50%

IC50 [3]: 50 to 250 nM
Compound: Cc1nc(-c2cnn(C)c2NC(=O)O[C@H](C)c2ccccc2)ccc1NC(=O)[C@H]1CCCC[C@@H]1C(=O)O [Example 43, (1S,2S)-2-((2-methyl-6-(1-methyl-5-((((R)-1-phenylethoxy)carbonyl)amino)-1H-pyrazol-4-yl)pyridin-3-yl)carbamoyl)cyclohexane-1-carboxylic acid]
inhibition at 10 min, 50 μM [1]: ≤ 50%

IC50 [3]: < 50 nM
Compound: Cc1nc(-c2nnn(C)c2NC(=O)O[C@H](C)c2ccccc2)ccc1NC(=O)[C@H]1CCCC[C@@H]1C(=O)O [Example 44, (1S,2S)-2-((2-methyl-6-(1-methyl-5-((((R)-1-phenylethoxy)carbonyl)amino)-1H-1,2,3-triazol-4-yl)pyridin-3-yl)carbamoyl)cyclohexane-1-carboxylic acid]
inhibition at 10 min, 50 μM [1]: ≤ 50%

The remaining lines, values behind:

Compound: Cc1nc(-c2onc(C)c2NC(=O)O[C@H](C)c2ccccc2Cl)ccc1NC(=O)C1CCCCC1C(=O)O (single isomer, unassigned) [Example 13]
inhibition at 10 min, 50 μM [1]: ≤ 50%
Papp at 120 min, 10 µM [2]: ≥ 1.5 ×10⁻⁶ cm/s

Compound: Cc1ccccc1[C@@H](C)OC(=O)Nc1c(C)noc1-c1ccc(NC(=O)[C@H]2CCCC[C@@H]2C(=O)O)c(C)n1 [Example 32, (1S,2S)-2-((2-methyl-6-(3-methyl-4-((((R)-1-(o-toly1)ethoxy)carbonyl)amino)isoxazol-5-yl)pyridin-3-yl)carbamoyl)cyclohexane-1-carboxylic acid]
inhibition at 10 min, 50 μM [1]: ≤ 50%
Papp at 120 min, 10 µM [2]: ≥ 1.5 ×10⁻⁶ cm/s

Compound: Cc1nc(-c2onc(C)c2NC(=O)O[C@H](C)c2cccnc2Cl)ccc1NC(=O)[C@H]1CCCC[C@@H]1C(=O)O [Example 11, (1S,2S)-2-((6-(4-((((R)-1-(2-chloropyridin-3-yl)ethoxy)carbonyl)amino)-3-methylisoxazol-5-yl)-2-methylpyridin-3-yl)carbamoyl)cyclohexane-1-carboxylic acid]
IC50 [3]: 50 to 250 nM
inhibition at 10 min, 50 μM [1]: ≤ 50%

Compound: Cc1noc(-c2ncc(NC(=O)[C@H]3CCCC[C@@H]3C(=O)O)cc2F)c1NC(=O)O[C@H](C)c1ccccc1Cl [Example 31, (1S,2S)-2-((6-(4-((((R)-1-(2-chlorophenyl)ethoxy)carbonyl)amino)-3-methylisoxazol-5-yl)-5-fluoropyridin-3-yl)carbamoyl)cyclohexane-1-carboxylic acid]
IC50 [3]: < 50 nM
inhibition at 10 min, 50 μM [1]: ≤ 50%

Compound: Cc1noc(-c2ccc(NC(=O)[C@H]3CCCC[C@@H]3C(=O)O)cn2)c1NC(=O)O[C@H](C)c1ccccc1 [Example 41, (1S,2S)-2-((6-(3-methyl-4-((((R)-1-phenylethoxy)carbonyl)amino)isoxazol-5-yl)pyridin-3-yl)carbamoyl)cyclohexane-1-carboxylic acid]
IC50 [3]: < 50 nM
inhibition at 10 min, 50 μM [1]: ≤ 50%

Compound: Cc1noc(-c2ccc(NC(=O)[C@H]3CCCC[C@@H]3C(=O)O)cn2)c1NC(=O)O[C@H](C)c1cccnc1Cl [Example 29, (1S,2S)-2-((6-(4-((((R)-1-(2-chloropyridin-3-yl)ethoxy)carbonyl)amino)-3-methylisoxazol-5-yl)pyridin-3-yl)carbamoyl)cyclohexane-1-carboxylic acid]
IC50 [3]: 50 to 250 nM
inhibition at 10 min, 50 μM [1]: ≤ 50%

Compound: COc1ccccc1[C@@H](C)OC(=O)Nc1c(C)noc1-c1ccc(NC(=O)[C@H]2CCCC[C@@H]2C(=O)O)cn1 [Example 37, (1S,2S)-2-((6-(4-((((R)-1-(2-methoxyphenyl)ethoxy)carbonyl)amino)-3-methylisoxazol-5-yl)pyridin-3-yl)carbamoyl)cyclohexane-1-carboxylic acid]
IC50 [3]: 50 to 250 nM
inhibition at 10 min, 50 μM [1]: ≤ 50%

Compound: C[C@@H](OC(=O)Nc1c(-c2ccc(NC(=O)[C@H]3CCCC[C@@H]3C(=O)O)cc2)nnn1C)c1ccccc1Cl [Example 23, (1S,2S)-2-((4-(5-((((R)-1-(2-chlorophenyl)ethoxy)carbonyl)amino)-1-methyl-1H-1,2,3-triazol-4-yl)phenyl)carbamoyl)cyclohexane-1-carboxylic acid]
IC50 [3]: < 50 nM
inhibition at 10 min, 50 μM [1]: ≤ 50%
